According to article PMC6581572 (ChemMedChem, 2019):
Like-named read-outs stand apart in the source and are kept apart here.

Key:
[1] = molecular target: IAV endonuclease (Influenza A virus, UniProt C3W5S0); assay: High throughput endonuclease assay; assay type: biochemical, influenza A/California/04/09 H1N1; conditions: for LE kcal/(mol·NHA): ligand efficiency, Tables 1 and 2
[2] = Chemical stability of the isolated compound; assay type: physicochemical; conditions: isolated tetrazole product, two synthetic routes
[3] = tested on: influenza A/Puerto Rico/08/1934 H1N1 expressing mCherry (PR8-mCherry); conditions: read-out: EC50, antiviral activity; cellular assay, previously reported; cited from earlier work

Row | SMILES | IC50 [1] [nM] | LE kcal/(mol·NHA) ([1]; LE = −RTln(IC50)/NHA) | further results
1 | N#Cc1ccc(-c2cc(O)c(=O)[nH]c2Cc2ccc(F)cc2)cc1 [Compound 18, 4-(2-(4-Fluorobenzyl)-5-hydroxy-6-oxo-1,6-dihydropyridin-3-yl)benzonitrile] | 507 | 0.360 kcal/(mol·NHA) | –
2 | O=C(O[C@@H]1Cc2c(O)cc(O)cc2O[C@@H]1c1cc(O)c(O)c(O)c1)c1cc(O)c(O)c(O)c1 [epigallocatechin gallate, reference compound] | – | – | ligand efficiency of reference inhibitor ([1]; LE = −RTln(IC50)/NHA): 0.249 kcal/(mol·NHA); IC50 ([1]; read-out: IC50 of reference inhibitor in this assay, green tea catechin): 1000 nM
3 | O=C(O)c1ccc(-c2[nH]c(=O)c(O)cc2-c2ccc(F)cc2)cc1 [Compound 24, 4-(3-(4-Fluorophenyl)-5-hydroxy-6-oxo-1,6-dihydropyridin-2-yl)benzoic acid] | 55 | 0.415 kcal/(mol·NHA) | –
4 | O=c1[nH]c(-c2ccc3ccccc3c2)c(-c2ccc(-c3nn[nH]n3)cc2)cc1O [tetrazole derivative of 10, 6-(2-naphthyl)-5-(p-(5-tetrazoyl)phenyl)-3-hydroxypyridin-2(1H)-one] | – | – | Stability of the isolated product [2]: unexpectedly unstable
5 | O=c1[nH]c(-c2ccc(-c3nnn[nH]3)cc2)c(Cc2ccc(F)cc2)cc1O [Compound 28, 6-(4-(1H-Tetrazol-5-yl)phenyl)-5-(4-fluorobenzyl)-3-hydroxypyridin-2(1H)-one] | 54 | 0.369 kcal/(mol·NHA) | –
6 | N#Cc1ccc(-c2cc(O)c(=O)[nH]c2-c2cccc3ccccc23)cc1 [Compound 8, 4-(5-Hydroxy-2-(naphthalen-1-yl)-6-oxo-1,6-dihydropyridin-3-yl)benzonitrile] | 220 | 0.351 kcal/(mol·NHA) | –
7 | N#Cc1ccc(-c2[nH]c(=O)c(O)cc2-c2ccc(F)cc2)cc1 [Compound 6] | – | 0.433 kcal/(mol·NHA) | –
8 | O=c1[nH]c(-c2ccc(-c3nnn[nH]3)cc2)c(Cc2ccc3ccccc3c2)cc1O [Compound 30, 6-(4-(1H-Tetrazol-5-yl)phenyl)-3-hydroxy-5-(naphthalen-2-ylmethyl)pyridin-2(1H)-one] | – | 0.324 kcal/(mol·NHA) | –
9 | N#Cc1ccc(-c2cc(O)c(=O)[nH]c2Cc2ccc3ccccc3c2)cc1 [Compound 20, 4-(5-Hydroxy-2-(naphthalen-2-ylmethyl)-6-oxo-1,6-dihydropyridin-3-yl)benzonitrile] | 660 | 0.314 kcal/(mol·NHA) | –
10 | N#Cc1ccc(-c2cc(O)c(=O)[nH]c2-c2ccc3ccccc3c2)cc1 [Compound 10, 4-(5-Hydroxy-2-(naphthalen-2-yl)-6-oxo-1,6-dihydropyridin-3-yl)benzonitrile] | – | 0.330 kcal/(mol·NHA) | –
11 | O=c1[nH]c(-c2cccc3ccccc23)c(-c2ccc(-c3nnn[nH]3)cc2)cc1O [Compound 9, 5-(4-(1H-Tetrazol-5-yl)phenyl)-3-hydroxy-6-(naphthalen-1-yl)pyridin-2(1H)-one] | – | 0.354 kcal/(mol·NHA) | –
12 | N#Cc1ccc(-c2[nH]c(=O)c(O)cc2Cc2ccc3ccccc3c2)cc1 [Compound 27, 4-(5-Hydroxy-3-(naphthalen-2-ylmethyl)-6-oxo-1,6-dihydropyridin-2-yl)benzonitrile] | 250 | 0.335 kcal/(mol·NHA) | –
13 | COC(=O)c1ccc(-c2cc(O)c(=O)[nH]c2-c2ccc(F)cc2)cc1 [Compound 12, Methyl 4-(2-(4-fluorophenyl)-5-hydroxy-6-oxo-1,6-dihydropyridin-3-yl)benzoate] | 125 | – | –
14 | O=c1[nH]c(-c2ccc(-c3nnn[nH]3)cc2)c(-c2ccc(F)cc2)cc1O [Compound 7] | – | 0.403 kcal/(mol·NHA) | –
15 | O=c1[nH]c(Cc2cccc3ccccc23)c(-c2ccc(-c3nnn[nH]3)cc2)cc1O [Compound 22, 5-(4-(1H-Tetrazol-5-yl)phenyl)-3-hydroxy-6-(naphthalen-1-ylmethyl)pyridin-2(1H)-one] | – | 0.358 kcal/(mol·NHA) | –
16 | O=c1[nH]c(-c2ccc(-c3nnn[nH]3)cc2)c(Cc2cccc3ccccc23)cc1O [Compound 29, 6-(4-(1H-Tetrazol-5-yl)phenyl)-3-hydroxy-5-(naphthalen-1-ylmethyl)pyridin-2(1H)-one] | – | 0.362 kcal/(mol·NHA) | –
17 | Cn1nnc(-c2ccc(-c3cc(O)c(=O)[nH]c3-c3ccc(F)cc3)cc2)n1 [Compound 14, 6-(4-Fluorophenyl)-3-hydroxy-5-(4-(2-methyl-2H-tetrazol-5-yl)phenyl)pyridin-2(1H)-one] | 138 | 0.348 kcal/(mol·NHA) | –
18 | N#Cc1ccc(-c2[nH]c(=O)c(O)cc2Cc2cccc3ccccc23)cc1 [Compound 26, 4-(5-Hydroxy-3-(naphthalen-1-ylmethyl)-6-oxo-1,6-dihydropyridin-2-yl)benzonitrile] | 173 | 0.343 kcal/(mol·NHA) | –
19 | N#Cc1ccc(-c2cc(O)c(=O)[nH]c2-c2ccc(F)cc2)cc1 [Compound 1] | – | 0.409 kcal/(mol·NHA) | –
20 | O=C(O)c1ccc(-c2cc(O)c(=O)[nH]c2-c2ccc(F)cc2)cc1 [Compound 11, 4-(2-(4-Fluorophenyl)-5-hydroxy-6-oxo-1,6-dihydropyridin-3-yl)benzoic acid] | 11 | 0.455 kcal/(mol·NHA) | –
21 | NS(=O)(=O)c1ccc(-c2cc(O)c(=O)[nH]c2-c2ccc(F)cc2)cc1 [Compound 15, 4-(2-(4-Fluorophenyl)-5-hydroxy-6-oxo-1,6-dihydropyridin-3-yl)benzenesulfonamide] | 347 | 0.354 kcal/(mol·NHA) | –
22 | N#Cc1ccc(-c2cc(O)c(=O)[nH]c2Cc2cccc3ccccc23)cc1 [Compound 19, 4-(5-Hydroxy-2-(naphthalen-1-ylmethyl)-6-oxo-1,6-dihydropyridin-3-yl)benzonitrile] | 114 | 0.353 kcal/(mol·NHA) | –
23 | N#Cc1ccc(-c2[nH]c(=O)c(O)cc2Cc2ccc(F)cc2)cc1 [Compound 25, 4-(3-(4-Fluorobenzyl)-5-hydroxy-6-oxo-1,6-dihydropyridin-2-yl)benzonitrile] | 484 | 0.361 kcal/(mol·NHA) | –
24 | O=c1[nH]c(-c2ccc(F)cc2)c(-c2ccc(-c3cnn[nH]3)cc2)cc1O [Compound 17, 5-(4-(1H-1,2,3-Triazol-5-yl)phenyl)-6-(4-fluorophenyl)-3-hydroxypyridin-2(1H)-one] | 25 | 0.401 kcal/(mol·NHA) | –
25 | Cn1nnnc1-c1ccc(-c2cc(O)c(=O)[nH]c2-c2ccc(F)cc2)cc1 [Compound 13, 6-(4-Fluorophenyl)-3-hydroxy-5-(4-(1-methyl-1H-tetrazol-5-yl)phenyl)pyridin-2(1H)-one] | 298 | 0.331 kcal/(mol·NHA) | –
26 | O=c1[nH]c(-c2ccc(F)cc2)c(-c2ccc(-c3nnn[nH]3)cc2)cc1O [Compound 2] | – | – | EC50 [3]: 11000 nM
27 | O=c1[nH]c(Cc2ccc(F)cc2)c(-c2ccc(-c3nnn[nH]3)cc2)cc1O [Compound 21, 5-(4-(1H-Tetrazol-5-yl)phenyl)-6-(4-fluorobenzyl)-3-hydroxypyridin-2(1H)-one] | 26 | 0.385 kcal/(mol·NHA) | –
28 | CC(=O)NS(=O)(=O)c1ccc(-c2cc(O)c(=O)[nH]c2-c2ccc(F)cc2)cc1 [Compound 16, N-((4-(2-(4-Fluorophenyl)-5-hydroxy-6-oxo-1,6-dihydropyridin-3-yl)phenyl)sulfonyl)acetamide] | 145 | 0.335 kcal/(mol·NHA) | –
29 | O=c1[nH]c(Cc2ccc3ccccc3c2)c(-c2ccc(-c3nnn[nH]3)cc2)cc1O [Compound 23, 5-(4-(1H-Tetrazol-5-yl)phenyl)-3-hydroxy-6-(naphthalen-2-ylmethyl)pyridin-2(1H)-one] | – | 0.328 kcal/(mol·NHA) | –
